# Laboratory results as given in patent US4800194A, “Acylphosphorotriamides useful as lipid-altering agents” (priority 1986, dated 1989).
# Key:
# [1] = tested on: Hyperlipidemic Guinea Pigs; assay: Multiple dose study in hyperlipidemic guinea pigs: plasma LDL/HDL ratio by lipoprotein electrophoresis (Test Method 2, Example 29); format: in vivo, guinea pig; conditions: 2.5 mg/kg i.p. once daily
# Description: (§1) Male Hartley guinea pigs (Elm Hill Breeding Labs., Chelmsford, MA or Charles River, Wilmington, MA) was used in all experiments unless otherwise specified. The animals were maintained on a normal diet of rabbit pellets (Purina Rabbit Chow 5321, Ralston Purina, St. Louis, MO) and water containing 0.1% ascorbic acid ad libitum. For special studies in the hyperlipidemic guinea pig model, the animals were maintained on the high cholesterol diet described in this report and water containing 0.1% ascorbic acid ad libitum.
# (§2) Individual animals were identified by ear and cage markings. The dose of drug or placebo was adjusted daily for changes in the weight of the guinea pigs. Blood samples were collected in EDTA Vacutainers by open chest cardiac puncture under carbon dioxide anesthesia from guinea pigs which had been fasted overnight. The animals were then sacrificed by CO2 inhalation. Blood samples were centrifuged at 2000 rpm for 15 min. in an IEC centrifuge (International Equipment Co., Boston, MA) with a 240 rotor for isolation of plasma. Lipoprotein analyses of plasma were carried out on the same day as the blood collection. Assays of pseudocholinesterase activity were carried out within a week of blood collection on plasma samples which had been stored at 4° C.
# Freshly prepared samples of EDTA plasma were analyzed for lipoproteins with the Redi-Disc Lipoprotein Electrophoresis Kit (Miles Laboratories, Elkhart, IN) by the procedure recommended in the package insert supplied in the kit.
# Redi-Disc Lipoprotein Gel Tubes, polyacrylamide 3%, buffer, preservative.
# Redi-Disc Lipoprotein Loading Gel, acrylamide 2.5 g/dl., N,N'-methylenebisacrylamide 0.6 g/dl, sudan black B 13 mg/dl, catalyst, stabilizer, buffer.
# Redi-Disc Lipoprotein Buffer, Trishydroxymethylaminomethane 27% w/w, boric acid 73% w/w, pH of solution 7.4-7.9 (11 g diluted to 1200 ml with water).
# The gel tubes were removed from the storage buffer and shaken to remove excess buffer. A 25 μl aliquot of plasma was added to each tube and mixed with 200 μl of loading gel. The loading gel was photopolymerized for 30-40 min. under a fluorescent light. The gel tubes were placed in the electrophoresis apparatus (Buchler Instruments, Fort Lee, NJ) and Redi-Disc Liproprotein Buffer was then added to the upper and lower chambers of the apparatus. The current was adjusted to 5 mA per gel tube. Electrophoresis was stopped when the HDL band was about 4-5 mm from the bottom of the gel tube.
# The gels were stored in water for at least 30 min. following electrophoresis to allow the lipoprotein zones to spread. The gels were scanned at 615 nm in either a Beckman Acta C111 spectrophotometer or a Beckman DU-8B spectrophotometer. The areas of the lipoprotein peaks (VLDL, LDL, and HDL) were determined by gravimetric analysis (cut and weighed) on the Acta C111 or by electronic integration on the DU-8B.
# (§3) A 1:15 mixture of cholesterol:corn oil was prepared by adding 25 g of USP cholesterol (Sigma Chemical Company, St. Louis, MO) to 375 g of corn oil (Mazola, Best Foods, CPC International, Inc., Englewood Cliffs, NJ). The mixture was stirred, sonicated, and heated in a hot water bath until the cholesterol completely dissolved. It was necessary to keep the mixture warm (50°-60° C.) in order to prevent congealing.
# (§4) Batches of feed were prepared by adding 160 g of the cholesterol-corn oil solution to 840 g of Purina Rabbit Chow 5321. The pellets and lipid mixture were thoroughly mixed in a 2-liter or 3-liter Erlenmeyer flask to ensure uniform coating of the pellets. The feed was then stored at room temperature until needed.
# Two groups of male Hartley Guinea pigs were maintained on the high cholesterol diet described above and water containing 0.1% ascorbic acid ad libitum. One group was treated once daily with a freshly prepared solution of test compound 4, N-(diaminophosphinyl)-4-fluorobenzamide, (1.0 mg/ml in 0.9% saline solution) at 2.5 mg/kg by intraperitoneal injection for 14 days. […]
# [2] = tested on: pseudocholinesterase; assay: Multiple dose study in hyperlipidemic guinea pigs: plasma pseudocholinesterase activity (Test Method 2, Example 29); format: in vivo, guinea pig; conditions: 2.5 mg/kg i.p. once daily
# Description: as §1, §2
# The assay method used was based on the procedure described in Ellman, G. L., K. D. Courtney, V. Andres & R. M. Featherstone, "A New and Rapid Colorimetric Determination of Acetylcholinesterase Activity", Biolchemical Pharmacology, Vol. 7 (1961), pp. 88-95. Reactions were carried out at 35° C. in pH 7.2 NaH2 PO4 50 mM buffer containing 5 mM butyrylthiocholine iodide (substrate) and 0.25 mM 5,5'-dithiobis-[2-nitrobenzoic acid] (chromogen). The rate of change of absorbance at 405 nm with time was monitored by means of a Cary 16 spectrophotometer (Varian Associates, Walnut Creek, CA) or a Beckman DU-8B spectrophotometer (Beckman Instruments, Inc., Palo Alto, CA). Corrections were made for non-enzymic hydrolysis of substrate.
# Enzyme Buffer: 6.90 g (50 mmol) NaH2 PO4.H2 O+[…] (0.25 mmol) 5,5'-dithiobis-(2-nitrobenzoic acid). The reagents were dissolved in Milli-Q purified distilled water, titrated to pH 7.2 with 1N NaOH, and diluted to one liter with water.
# Substrate: 0.2476 g (0.780 mmol) S-butyrylthiocholine iodide (BTC). The substrate was dissolved in 5 ml of Milli-Q purified distilled water. [BTC]=156 mM.
# Into a 1-cm pathlength cuvette was placed 3.0 ml of enzyme buffer. At least 10 min. was allowed for temperature equilibration. A 100 μl aliquot of substrate was added to the cuvette, the solution was mixed and about 3 min. was allowed for determination of the non-enzymic rate of substrate hydrolysis before the enzymic reaction was initiated by addition of 25 μl of plasma. The increase in absorbance at 405 nm was measured vs. a blank containing enzyme buffer.
# Into a 1-cm pathlength cuvette was placed 3.0 ml of enzyme buffer and 100 μl of substrate. The solution was mixed and about 10 min. was allowed for temperature equilibration. The reaction was initiated by addition of 25 μl of plasma. The increase in absorbance at 405 nm was measured vs. a blank containing enzyme buffer and substrate. No additional correction for non-enzymic substrate hydrolysis was necessary.
# as §3
# as §4, with “needed. […]” for “needed.”
smiles,measurement,setting,value
"NP(N)(=O)NC(=O)c1ccc(F)cc1 [Test Compound 4, N-(diaminophosphinyl)-4-fluorobenzamide]",LDL/HDL ratio vs saline-treated control,"[1]; 14th day of treatment, result in words",significantly lower (p<0.05)
same,LDL/HDL,"[1]; day 1, control 2.45",1.91
same,LDL/HDL,"[1]; day 3, control 2.28",2.43
same,LDL/HDL,"[1]; day 7, control 4.25",4.08
same,LDL/HDL,"[1]; day 10, control 3.23",2.75
same,LDL/HDL,"[1]; day 14, control 2.60, significantly different from control (p < 0.05)",1.50
same,% PChE Inhibition (Compared to Control),[2]; day 1,51.6%
same,% PChE Inhibition (Compared to Control),[2]; day 3,45.0%
same,% PChE Inhibition (Compared to Control),[2]; day 7,58.6%
same,% PChE Inhibition (Compared to Control),[2]; day 10,65.0%
same,% PChE Inhibition (Compared to Control),[2]; day 14,69.0%
same,plasma pseudocholinesterase activity vs saline-treated control,"[2]; high cholesterol diet, result in words",substantially lower plasma pseudocholinesterase activity
